In PubChem BioAssay (NCI):
“And” between values parts separate entries of the source, which are not always exact repeats. Equal values may be shown once.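 Values below derive from 48-hour exposures of cells grown in 96-well plates, with endpoints linearly interpolated between the two concentrations bracketing the appropriate inhibition level. GI50: concentration for 50% inhibition of growth. TGI is the concentration that stops growth completely.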

Tests used:
Test in all cases: growth of human tumour cells (NCI), 48 h
MOLT-4 leukemia = test system: MOLT-4 leukemia
OVCAR-8 ovarian = test system: OVCAR-8 ovarian
HL-60(TB) leukemia = test system: HL-60(TB) leukemia
UO-31 renal = test system: UO-31 renal
SK-MEL-2 melanoma = test system: SK-MEL-2 melanoma
SR leukemia = test system: SR leukemia
EKVX NSCLC = test system: EKVX NSCLC
OVCAR-3 ovarian = test system: OVCAR-3 ovarian
MCF7 breast = test system: MCF7 breast
SNB-75 CNS = test system: SNB-75 CNS

Structure (SMILES)	TGI (MOLT-4 leukemia)	TGI (OVCAR-8 ovarian)	TGI (HL-60(TB) leukemia)	TGI (UO-31 renal)	TGI (SK-MEL-2 melanoma)	TGI (SR leukemia) [µM]	TGI (EKVX NSCLC)	TGI (OVCAR-3 ovarian)	TGI (MCF7 breast)	TGI (SNB-75 CNS)	GI50 (MOLT-4 leukemia) [µM]	GI50 (OVCAR-8 ovarian) [µM]	GI50 (HL-60(TB) leukemia)	GI50 (UO-31 renal) [µM]	GI50 (SK-MEL-2 melanoma) [µM]	GI50 (EKVX NSCLC) [µM]	GI50 (OVCAR-3 ovarian)	GI50 (MCF7 breast) [µM]	GI50 (SNB-75 CNS) [µM]
Cc1cccc(/C=N/NC(=S)Nc2ccccc2)n1	> 100 µM	8.92 µM	> 24.7 µM	> 31.2 µM	36 µM	> 100	> 49.3 µM	13.6 µM	> 25.7 µM	32.3 µM	–	–	–	–	–	–	–	–	–
COc1c(C)c(C/C=C(\C)CCCCO[Si](c2ccccc2)(c2ccccc2)C(C)(C)C)c(OC)c(OC)c1OC	> 46.4 µM	35.6 µM	> 100 µM	19.4 µM	> 100 µM	> 46.4	> 31.6 µM	> 46.4 µM	> 46.4 µM	> 46.4 µM	–	–	–	–	–	–	–	–	–
C[C@@]12C[C@@H](c3ccccc3O1)N1CCCCSC1=N2	> 100 µM	> 100 µM	> 100 µM	> 100 µM	> 100 µM	> 100	> 100 µM	> 100 µM	> 100 µM	> 100 µM	–	–	–	–	–	–	–	–	–
Cc1ccc(SCC(CSCCO)OCn2cnc3c2NC(N)=NC32OCCO2)cc1 (centres undefined)	> 100 µM	> 100 µM	> 100 µM	> 100 µM	> 100 µM	> 100	> 100 µM	> 100 µM	> 100 µM	> 100 µM	–	–	–	–	–	–	–	–	–
CNC(=O)OCC1=C(COC(=O)NC)C(C)N(c2ccc(OC)cc2)C1 (centres undefined)	> 100 µM	> 100 µM	55.2 µM	> 100 µM	> 100 µM	93.8	> 100 µM	> 100 µM	> 100 µM	> 100 µM	–	–	–	–	–	–	–	–	–
C=C1c2nc3ccccc3n2C=C(c2ccccc2)N1c1ccc([N+](=O)[O-])cc1	> 100 µM	43.4 µM	> 88.1 µM	16 µM	56.3 µM	> 70	24.8 µM	60.2 µM	> 37.9 µM	16.4 µM	–	–	–	–	–	–	–	–	–
COc1cc(/C=C/C(=N\NS(=O)(=O)c2ccc(C)cc2)c2sc(NNC(C)=O)nc2C)ccc1O	> 100 µM	> 100 µM	> 100 µM	> 100 µM	> 100 µM	> 100	> 100 µM	> 100 µM	> 100 µM	> 100 µM	–	–	–	–	–	–	–	–	–
CC[C@@]1(C[C@H]2C[C@@]3(C(=O)OC)c4[nH]c5ccccc5c4CCN3C2=O)COC2(CCCCC2)O1	> 100 µM	> 100 µM	> 100 µM	> 100 µM	96.3 µM	> 100	> 100 µM	> 100 µM	91.4 µM	> 100 µM	–	–	–	–	–	–	–	–	–
Clc1cc(OC2C3CC4CC(C3)CC2C4)nc(Cl)n1 (centres undefined)	34.8 µM	61.6 µM	12.9 µM	10.8 µM	25.8 µM	11.7	29.6 µM	35.2 µM	35.2 µM	86.7 µM	–	–	–	–	–	–	–	–	–
COc1ccc(CNc2nc(NCc3ccc(OC)c(OC)c3)nc(NC3CCCCC3)n2)cc1	> 100 µM	> 100 µM	> 100 µM	> 100 µM	> 100 µM	> 100	> 100 µM	> 100 µM	> 100 µM	> 100 µM	–	–	–	–	–	–	–	–	–
Cc1c2cnccc2c(C)c2c1c1ccccc1n2CCCN	0.472 µM and 0.217 µM	1.41 µM and 1.22 µM	1.52 µM and 1.81 µM	1.88 µM and 0.225 µM	1.59 µM and 1.42 µM	0.349	1.37 µM and 0.506 µM	1.84 µM and 0.833 µM	1.19 µM and 0.277 µM	1.48 µM and 0.368 µM	< 0.0178	0.205	0.527 µM and 0.414 µM	0.0685	0.348	0.153	0.721 µM and 0.251 µM	0.0474	0.169
O=C(CCC(=O)c1ccc(Cl)cc1)NO	> 100 µM	> 100 µM	> 100 µM	> 100 µM	> 100 µM	> 100	> 100 µM	> 100 µM	> 100 µM	> 100 µM	–	–	–	–	–	–	–	–	–
NC(=O)C(c1ccccc1)N1OC2C(=O)N(c3ccccc3)C(=O)C2C1c1c2ccccc2c(Cl)c2ccccc12 (centres undefined)	> 100 µM	> 100 µM	> 100 µM	> 100 µM	> 100 µM	> 100	> 100 µM	> 100 µM	> 100 µM	> 100 µM	–	–	–	–	–	–	–	–	–
CCOC(=O)c1c2ccccc2n2c(N)c(C(N)=O)nnc12	> 100 µM	55 µM	> 100 µM	> 100 µM	> 100 µM	> 100	> 100 µM	> 100 µM	> 100 µM	30.8 µM	–	–	–	–	–	–	–	–	–
CC(C)c1ccc(/C=C2/C=C(c3ccc4ccccc4c3)OC2=O)cc1	56.8 µM	> 100 µM	39.8 µM	> 100 µM	39.6 µM	> 52.4	> 92.5 µM	> 100 µM	> 100 µM	> 100 µM	–	–	–	–	–	–	–	–	–
CN1CCN([C@H]2C[C@H]3[C@@H]4CC=C5C[C@@H](O)CC[C@]5(C)[C@H]4CC[C@]3(C)C2=O)CC1	> 100 µM	> 100 µM	> 100 µM	> 100 µM	> 100 µM	70.1	> 100 µM	> 100 µM	> 100 µM	> 100 µM	–	–	–	–	–	–	–	–	–
O=[N+]([O-])C(=C1NCCN1)/C(Cl)=C(\Cl)Br	65.7 µM	> 100 µM	28.2 µM	> 100 µM	> 100 µM	55.4	> 60.5 µM	38.7 µM	> 78.7 µM	> 86.3 µM	–	–	–	–	–	–	–	–	–
